# Measurements from publication PMC8541546, “Identification of HLA-A2-Restricted Mutant Epitopes from Neoantigens of Esophageal Squamous Cell Carcinoma” (Vaccines, 2021).
# Columns and labels:
# [1] = molecular target: T1, peptide/HLA-A*0201 complex (Homo sapiens, UniProt P04439, D140Y/D185E/D98H/E176V/E277Q/G131W/G231S/I119V/I121R/I166T/I218V/L300P/L318F/N151K/N90K/P208A/P217A/Q86G/Q94H/R138H/R169H/T345S); experiment: peptide/MHC complex stabilization assay on T2A2 cells; format: binding; details: T2A2 cells pulsed with 50 μg/mL peptide and 3 μg/mL β2-M 18 h, BFA 1 h; MFI at 0, 2, 4, 6 h; time of half losing MFI of 0 h
# T1 construct: T2A2 cells (TAP-deficient HLA-A2 molecules overexpressing, cultured in IMDM medium); β2-M from Merck; host or cells: T2A2 cells
# Procedure: For the stabilization test, T2A2 cells were pulsed with 50 μg/mL mutant peptide and 3 μg/mL β2-Microglobulin (β2-M, Merck, Kenilworth, NJ, USA) in IMDM (serum-free) medium for 18 h. After three times washing, free peptides were removed and brefeldin A (BFA, 10 μg/mL, BD Bioscience, San Diego, CA, USA) was added. BFA was removed after 1 h impeding, and the cells were incubated for additional time. Finally, T2A2 was marked with anti-human HLA-A2 PE-Cyanine7 for 30 min, then analyzed by FACS Calibur (BD Bioscience, USA). MFI of 0 h was set as 100%, and the time of half losing MFI of 0 h defined the dissociation complex 50 (DC50). DC50 was computed as follows: (MFI of 0 h-MFI of (2, 4, or 6 h))/MFI of 0 h × 100%.
# KYSE140-MUT cells [2] = experiment: Intracellular staining (granzyme B) of CTLs from immunized Tg mice; format: in vivo, HLA-A2.1/K^b Tg mice; details: 100 μg/mouse s.c. with CpG ODN 1826 once a week for three weeks; spleen lymphocytes re-stimulated with MUT peptide; KYSE140-MUT target cells; n = 5 per group
# Procedure: (§1) To investigate whether neoepitopes could induce a peptide-specific T cell response in vivo, HLA-A2.1/K^b Tg mice were used and immunized according to the procedure de-scribed previously. In brief, mutant peptides or WH-mutant peptides (100 μg per mouse) with CpG-ODN 1826 (30 μg per mouse) were injected s.c. in the back of HLA-A2.1/K^b Tg mice (five mice per group, randomly grouped) once a week for three weeks. The normal saline (NS) group was immunized s.c. only with CpG ODN 1826 (30 μg/mouse) once a week for three weeks. Five days after the last injection, spleen lymphocytes were isolated and cultured at the concentration of 5 × 10^6 cells/mL in RPMI 1640 medium. These cells were induced by the same mutant peptides (10 μg/mL) that were used for in vivo stimulation and mIL-2 (30 U/mL) for a week. Intracellular cytokine staining assay (ICS) and cytotoxic assay (E: T ratios = 20:1, 40:1, 80:1) were performed after a week induced in vitro [22].
# To test the MUT peptides stimulation of CTL response in vivo, peptide-specific T cells induced from Tg mice were co-cultured with tumor cell lines transfected with WT or MUT minigenes, as described in the in vitro assay. These T cells were marked by surface marker antibodies anti-mouse CD3 and CD8α before fixation and permeabilization. Intracellular cytokines were marked by anti-mouse IFN-γ or anti-mouse granzyme B, respectively, and analyzed by flow cytometry (BD FACSCelesta™, USA).
# KYSE140-MUT cells [3] = experiment: Cytotoxicity assay (Cell Trace Far Red) of CTLs from immunized Tg mice; format: in vivo, HLA-A2.1/K^b Tg mice; details: KYSE140-MUT group, E/T of 80:1, 4 h
# Procedure: as §1
# The cytotoxicity of peptide-specific T cells stimulated by mutant peptides was tested by using Cell Trace Far Red (Thermo Scientific, USA). Transfected cells were suspended in PBS (1 × 10^6 cells/mL) and labelled with Cell Trace Far Red as follows: Control target cells and test target cells were marked by 50 μM and 1 mM Cell Trace Far Red, respectively, at 37 °C for 20 min, protected from light. After incubation, target cells were washed with complete media at 37 °C for 5 min. […] Subsequently, test target cells were mixed with control target cells in a tube, washed once, and analyzed by flow cytometry. Specific lysis (%) = (numbers of control target cells—numbers of test target cells)/numbers of control target cells × 100% [28, 29], where, for tumor cells, the control target cells refer to KYSE140-WT cells marked with 50 μM Cell Trace Far Red, and the test target cell refers to KYSE140-WT or KYSE140-MUT cells marked with 1 mM Cell Trace Far Red, respectively (peptide-specific T cells generated from donors G–K’s PBMCs in vitro or generated from spleen lymphocytes of HLA-A2.1/K^b Tg mice in vivo). […]
Sequence,DC50 (dissociation complex 50) [1],granzyme B expression of CTLs (KYSE140-MUT cells [2]),lysis rate (specific lysis) (KYSE140-MUT cells [3])
QVTDFLAPL [PCLO-E4090Q],>4 h,1.5%,76.7%
ILWRQDINL [NFE2L2-D13N],>6 h,2.3%,69.5%
LLGPNSFEV [TP53-R267P],>6 h,0.7%,71.5%
